Measurements published in ChEMBL document CHEMBL1201862, “PubChem BioAssay data set” (2004).
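The compound was tested at five concentrations on cells cultured in 96-well plates, with a 48-hour exposure period. At the GI50, growth is halved.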 Calls of active or inactive are those of the source. Cut-off read from the data, not from the text of the source: active = GI50 up to about 1.1 µM and inactive = higher.

How the values were obtained:
Assay in all cases: DTP human tumour cell line panel, 48 h
SK-MEL-28 = test system: SK-MEL-28
NCI-H460 = test system: NCI-H460
CAKI-1 = test system: CAKI-1
COLO 205 = test system: COLO 205
SN12C = test system: SN12C
SNB-19 = test system: SNB-19
UO-31 = test system: UO-31
NCI-H522 = test system: NCI-H522
SR = test system: SR
SK-MEL-5 = test system: SK-MEL-5
786-0 = test system: 786-0
LOX IMVI = test system: LOX IMVI
HOP-92 = test system: HOP-92
SF-539 = test system: SF-539
ACHN = test system: ACHN
HOP-62 = test system: HOP-62
KM12 = test system: KM12
BT-549 = test system: BT-549
UACC-62 = test system: UACC-62

Structure (SMILES)	GI50 (SK-MEL-28)	GI50 (NCI-H460)	GI50 (CAKI-1)	GI50 (COLO 205)	GI50 (SN12C)	GI50 (SNB-19)	GI50 (UO-31)	GI50 (NCI-H522)	GI50 (SR)	GI50 (SK-MEL-5)	GI50 (786-0)	GI50 (LOX IMVI)	GI50 (HOP-92)	GI50 (SF-539)	GI50 (ACHN)	GI50 (HOP-62)	GI50 (KM12)	GI50 (BT-549)	GI50 (UACC-62)
CC(N/N=N/c1ccc(-c2nc3ccccc3[nH]2)cc1)C(=O)O (stereo unspecified)	> 100 µM (inactive)	17.5 µM (inactive)	42.7 µM (inactive)	25.9 µM (inactive)	36.3 µM (inactive)	> 100 µM (inactive)	39.1 µM (inactive)	23.3 µM (inactive)	2.4 µM (inactive)	18.8 µM (inactive)	15.7 µM (inactive)	28.2 µM (inactive)	> 100 µM (inactive)	55 µM (inactive)	40.3 µM (inactive)	45.2 µM (inactive)	19.2 µM (inactive)	3.73 µM (inactive)	
CN1CCCCC1CCN1c2ccccc2Sc2ccc([S+](C)[O-])cc21 (stereo unspecified) [MESORIDAZINE]	> 100 µM (inactive)	> 100 µM (inactive)	> 100 µM (inactive)	> 100 µM (inactive)	> 100 µM (inactive)	> 100 µM (inactive)		> 100 µM (inactive)	> 100 µM (inactive)	> 100 µM (inactive)	> 100 µM (inactive)	> 100 µM (inactive)	> 100 µM (inactive)	> 100 µM (inactive)	> 100 µM (inactive)	> 100 µM (inactive)	> 100 µM (inactive)	> 100 µM (inactive)	> 100 µM (inactive)
COc1ccc(/N=N/C(=O)NC(Cc2ccccc2)C(=O)O)cc1 (stereo unspecified)	> 100 µM (inactive)	> 100 µM (inactive)	> 100 µM (inactive)	> 100 µM (inactive)	> 100 µM (inactive)	> 100 µM (inactive)	> 100 µM (inactive)	> 100 µM (inactive)	> 100 µM (inactive)	> 100 µM (inactive)	> 100 µM (inactive)	> 100 µM (inactive)	28.2 µM (inactive)	> 100 µM (inactive)	> 100 µM (inactive)	> 100 µM (inactive)	> 100 µM (inactive)	> 100 µM (inactive)	87.9 µM (inactive)
O=C1C(NS(=O)(=O)c2ccccc2)=C(n2cnc3ccccc32)C(=O)c2ccccc21	> 100 µM (inactive)	> 100 µM (inactive)	> 100 µM (inactive)	> 100 µM (inactive)	> 100 µM (inactive)	38.4 µM (inactive)	75.3 µM (inactive)	0.187 µM (active)	> 100 µM (inactive)	> 100 µM (inactive)	60.4 µM (inactive)	> 100 µM (inactive)	41.4 µM (inactive)	> 100 µM (inactive)	> 100 µM (inactive)	32.4 µM (inactive)	> 100 µM (inactive)	4.66 µM (inactive)	47.3 µM (inactive)
O=C1C(Br)=C(C2=CC(=P(c3ccccc3)(c3ccccc3)c3ccccc3)C=C2)C(=O)C(Br)=C1C1=CC(=P(c2ccccc2)(c2ccccc2)c2ccccc2)C=C1	41.8 µM (inactive)		> 100 µM (inactive)	> 100 µM (inactive)	> 100 µM (inactive)	> 100 µM (inactive)	> 100 µM (inactive)	19.9 µM (inactive)	> 100 µM (inactive)	> 100 µM (inactive)	37.9 µM (inactive)	> 100 µM (inactive)	28.2 µM (inactive)	> 100 µM (inactive)	> 100 µM (inactive)	> 100 µM (inactive)	> 100 µM (inactive)	> 100 µM (inactive)	> 100 µM (inactive)
CCOC(=O)C1=C(C)C2C=C(c3cccs3)CC(c3ccc(Cl)cc3)=C2OC1=O (stereo unspecified)	94.4 µM (inactive)	64.4 µM (inactive)	57.8 µM (inactive)	40.9 µM (inactive)	44.3 µM (inactive)	45.2 µM (inactive)	13.3 µM (inactive)	19.2 µM (inactive)	15.5 µM (inactive)	27 µM (inactive)	20.6 µM (inactive)	16.9 µM (inactive)	> 100 µM (inactive)		32.7 µM (inactive)	86.1 µM (inactive)	15.2 µM (inactive)	31.5 µM (inactive)	45.8 µM (inactive)
Cc1cc2c(cc1N)C(C)C1(CCC(=O)N2Cc2ccccc2)OCCO1 (stereo unspecified)	> 100 µM (inactive)	> 100 µM (inactive)	> 100 µM (inactive)		> 100 µM (inactive)	> 100 µM (inactive)	> 100 µM (inactive)	> 100 µM (inactive)	39.2 µM (inactive)	> 100 µM (inactive)	> 100 µM (inactive)	> 100 µM (inactive)	> 100 µM (inactive)	> 100 µM (inactive)	> 100 µM (inactive)	> 100 µM (inactive)	> 100 µM (inactive)	> 100 µM (inactive)	> 100 µM (inactive)
CCOC(=O)CSc1nc2ccccc2c(=O)n1N	> 100 µM (inactive)	83.4 µM (inactive)	> 100 µM (inactive)	> 100 µM (inactive)	63.1 µM (inactive)	> 100 µM (inactive)	> 100 µM (inactive)	> 100 µM (inactive)	> 100 µM (inactive)	> 100 µM (inactive)	> 100 µM (inactive)	> 100 µM (inactive)	> 100 µM (inactive)	> 100 µM (inactive)	> 100 µM (inactive)		> 100 µM (inactive)	> 100 µM (inactive)	> 100 µM (inactive)
